# Patent US4430341A, “Water soluble pesticidal quaternary ammonium salt compounds” (Union Carbide Corporation, priority 1977, dated 1984)
# Tests used:
# [1] = system: Soybean; assay: Phytotoxicity test, Soybean; assay type: in vivo; design: key: 1: no perceptible injury; 2: intermediate degrees of injury based upon the number and extent to which leaves were injured; 3: intermediate degrees of injury based upon the number and extent to which leaves were injured; 4: intermediate degrees of injury based upon the number and extent to which leaves were injured; 5: the plant was dead; settings: 2500 parts per million; ten days
# Procedure: (§1) Experiments were also conducted to determine the phytotoxicity of a representative composition with respect to healthy fresh plants. A solution of the compound prepared as described above to provide a concentration of 2500 parts per million of the test compound. The test plants were sprayed in accordance with the procedure described above for the Mite Foliage Spray Test so as to deliver approximately 100 milliliters of test solution to the leaves of each plant tested. The sprayed plants and controls were set aside for approximately one hour to allow the solutions to dry and were then placed in the greenhouse. After ten days the plants were visually inspected to determine the extent of foliage injury. A rating of 1 indicates no perceptible injury; 5 indicates the plant was dead and ratings of 2, 3 and 4 indicate intermediate degrees of injury based upon the number and extent to which leaves were injured.
# [2] = Water solubility; assay type: physicochemical; settings: 25° C.
# [3] = system: Cot.; assay: Phytotoxicity test, Cot. (fourth column); assay type: in vivo; design: key: 1: no perceptible injury; 2: intermediate degrees of injury based upon the number and extent to which leaves were injured; 3: intermediate degrees of injury based upon the number and extent to which leaves were injured; 4: intermediate degrees of injury based upon the number and extent to which leaves were injured; 5: the plant was dead; settings: 2500 parts per million; ten days
# Procedure: as §1
# [4] = system: two-spotted mite (Tetranychus urticae Koch); assay: Mite Foliage Spray Test; assay type: in vivo; design: key: A: Excellent control; B: Partial control; C: No control; settings: 500 parts per million; six days
# Procedure: (§2) The compound of EXAMPLE IV was evaluated to determine its pesticidal activity against mites and certain insects, including an aphid, a caterpillar, a beetle and a fly.
# (§3) Suspensions of the test compound was prepared by dissolving one gram of compound in 50 milliliters of acetone in which had been dissolved 0.1 gram (10 percent of the weight of compound) of an alkylphenoxy polyethoxyethanol surfactant, as an emulsifying or dispersing agent. The resulting solution was mixed into 150 milliliters of water to give roughly 200 of milliliters of a suspension containing the compound in finely divided form. The thus-prepared stock suspension contained 0.5 percent by weight of test compound. The test concentrations in parts per million by weight employed in the tests described hereinbelow were obtained by appropriate dilutions of the stock suspension with water. The test procedures were as follows.
# Adults and nymphal stages of the two-spotted mite (Tetranychus urticae Koch), reared on Tendergreen bean plants at 80±5 percent relative humidity, were the test organisms. Infested leaves from a stock culture were placed on the primary leaves of two bean plants six to eight inches in height, growing in a two- and-a-half inch clay pot. 150-200 mites, a sufficient number for testing, transferred from the excised leaves to the fresh plants in a period of twenty-four hours. […]
# [5] = system: southern armyworm (Prodenia Eridania, (Cram.)); assay: Southern Armyworm Leaf Spray Test; assay type: in vivo; design: key: A: Excellent control; B: Partial control; C: No control; settings: 500 parts per million; three days
# Procedure: as §2, §3
# Larvae of the southern armyworm (Prodenia Eridania, (Cram.), reared on Tendergreen bean plants at a temperature of 80±5° F. and relative humidity of 50±5 percent, constituted the test insects. […]
# This application which lasted 25 seconds was sufficient to wet plants to run-off. […] Percent mortality was recorded for various concentration levels. […]
# [6] = system: Cot.; assay: Phytotoxicity test, Cot. (second column); assay type: in vivo; design: key: 1: no perceptible injury; 2: intermediate degrees of injury based upon the number and extent to which leaves were injured; 3: intermediate degrees of injury based upon the number and extent to which leaves were injured; 4: intermediate degrees of injury based upon the number and extent to which leaves were injured; 5: the plant was dead; settings: 2500 parts per million; ten days
# Procedure: as §1
# [7] = system: bean aphid (Aphis fabae Scop.); assay: Bean Aphid Foliage Spray Test; assay type: in vivo; design: key: A: Excellent control; B: Partial control; C: No control; settings: 500 parts per million; 24 hour holding period
# Procedure: as §2, §3
# Adults and nymphal stages of the bean aphid (Aphis fabae Scop.) reared on potted dwarf nasturtium plants at 65°-70° F. and 50-70 percent relative humidity, constituted the test insects. […]
# The potted plants (one pot per compound tested) infested with 100-150 aphids, were placed on a revolving turntable and sprayed with 100-110 milliliters of test compound formulation by use of a DeVilbiss spray gun set at 40 psig. air pressure. […] Percent mortality was recorded for various concentration levels. […]
# [8] = system: Mexican bean beetle (Epilachna varivestis, Muls.); assay: Mexican Bean Beetle Leaf Spray Test; assay type: in vivo; design: key: A: Excellent control; B: Partial control; C: No control; settings: 500 parts per million; three days
# Procedure: as §2, §3
# Fourth instar larvae of the Mexican bean beetle (Epilachna varivestis, Muls.) reared on Tendergreen bean plants at a temperature of 80±5° and 50±5 percent relative humidity, were the test insects.
# The test compound was formulated by diluting the stock suspension with water to give a suspension containing 500 parts of test compound per million parts of final formulation. […]
# [9] = system: house flies (Musca domestica, L.); assay: Fly Bait Test; assay type: in vivo; design: key: A: Excellent control; B: Partial control; C: No control; settings: 500 parts per million in sugar solution bait; twenty four hours
# Procedure: as §2, §3
# Four to six day old adult house flies (Musca domestica, L.) reared according to the specifications of the Chemical Specialties Manufacturing Association (Blue Book, McNair-Dorland Co., N.Y., 1954; pages 243-244, 261) under controlled conditions of 80±° F. and 50±5 percent relative humidity, were the test insects. […]
# [10] = system: Tom.; assay: Phytotoxicity test, Tom.; assay type: in vivo; design: key: 1: no perceptible injury; 2: intermediate degrees of injury based upon the number and extent to which leaves were injured; 3: intermediate degrees of injury based upon the number and extent to which leaves were injured; 4: intermediate degrees of injury based upon the number and extent to which leaves were injured; 5: the plant was dead; settings: 2500 parts per million; ten days
# Procedure: as §1
# [11] = system: Bean; assay: Phytotoxicity test, Bean; assay type: in vivo; design: key: 1: no perceptible injury; 2: intermediate degrees of injury based upon the number and extent to which leaves were injured; 3: intermediate degrees of injury based upon the number and extent to which leaves were injured; 4: intermediate degrees of injury based upon the number and extent to which leaves were injured; 5: the plant was dead; settings: 2500 parts per million; ten days
# Procedure: as §1
smiles,measurement,setting,value
CN(C(=O)C[N+](C)(C)CCOCC[N+](C)(C)CC(=O)N(C)C(=O)Oc1cccc2ccccc12)C(=O)Oc1cccc2ccccc12 [EXAMPLE IV],Herbicidal: Soybean,[1],2
same,% Water Solubility,[2],20%
same,solubility,[2]; water,200 mg/mL
same,Herbicidal: Cot.,[3],2
same,Insecticidal and Miticidal: Mite,[4],C
same,Insecticidal and Miticidal: So. Army Worm,[5],A
same,Herbicidal: Cot.,[6],1
same,Insecticidal and Miticidal: Aphid,[7],B
same,Insecticidal and Miticidal: Mexican Bean Beetle,[8],A
same,Insecticidal and Miticidal: House Fly,[9],A
same,Herbicidal: Tom.,[10],1
same,Herbicidal: Bean,[11],2
